# Measurements reported in patent publication US10334853B2, “Compositions and methods for treating ectoparasite infestation” (Larada Sciences, Inc., priority 2016, dated 2019).
# System: live parasites, most commonly a louse
# Experiment: Petri dish screening: drops of test formulation on live parasites
# Format: in vivo
# Conditions: evaluation of solvents, method of Example 1
# Text: In one procedure that provides an evaluative method for determining effectiveness of commercial products, live parasites were removed from subjects' hair and placed into a Petri dish. One to two drops of test formulation were placed upon the test insect, most commonly a louse. The specimen was observed under magnification for initial movement, and was kept under observation for up to fifteen additional minutes. […] The effectiveness of the treatment was then rated on a 0-4 scale, with a score of 0 denoting total ineffectiveness and a score of 4 denoting total kill.
smiles,measurement,value
"CCCCOC(=O)CC(C)O (stereo not shown) [Example B1, Butyl 3-hydroxybutyrate]",Efficacy Score,0 (No elimination of live lice after 5 minutes (100% live lice remain))
